# Patent US8192962B2, “Processes for detecting toxic substances” (Daikin Industries, Ltd., priority 2001, dated 2012)
# System: Detoxification protein genes
# Assay: DNA chip mRNA expression in yeast, detoxification protein genes (Table 8)
# Assay type: cell-based, Saccharomyces cerevisiae S288C
# Method in brief: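 S. cerevisiae S288C grown at 25° C. in YPD to log phase, then exposed 2 h to a toxicant at a growth-inhibiting, non-lethal concentration; untreated cells as control. Poly(A) mRNA reverse-transcribed with Cy3-dUTP or Cy5-dUTP, hybridized >12 h at 65° C. to whole-genome yeast DNA chip; value = fluorescence ratio treated/untreated.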
structure (smiles),measurement,setting,value
"Cl[C@H]1[C@H](Cl)[C@@H](Cl)[C@@H](Cl)[C@H](Cl)[C@H]1Cl [(7), γ-hexachlorocyclohexane]",The level of expressed mRNA in the presence of chemical substance/The level of expressed mRNA in the absence of chemical substance,yeast gene YBL064C,2.5
same,The level of expressed mRNA in the presence of chemical substance/The level of expressed mRNA in the absence of chemical substance,yeast gene YBR008C,0.9
same,The level of expressed mRNA in the presence of chemical substance/The level of expressed mRNA in the absence of chemical substance,yeast gene YBR145W,58.8
same,The level of expressed mRNA in the presence of chemical substance/The level of expressed mRNA in the absence of chemical substance,yeast gene YBR244W,0.6
same,The level of expressed mRNA in the presence of chemical substance/The level of expressed mRNA in the absence of chemical substance,yeast gene YBR293W,0.9
same,The level of expressed mRNA in the presence of chemical substance/The level of expressed mRNA in the absence of chemical substance,yeast gene YCL035C,2.7
same,The level of expressed mRNA in the presence of chemical substance/The level of expressed mRNA in the absence of chemical substance,yeast gene YCL069W,1.4
same,The level of expressed mRNA in the presence of chemical substance/The level of expressed mRNA in the absence of chemical substance,yeast gene YCR083W,1.8
same,The level of expressed mRNA in the presence of chemical substance/The level of expressed mRNA in the absence of chemical substance,yeast gene YDL100C,1.6
same,The level of expressed mRNA in the presence of chemical substance/The level of expressed mRNA in the absence of chemical substance,yeast gene YDL168W,1.1
same,The level of expressed mRNA in the presence of chemical substance/The level of expressed mRNA in the absence of chemical substance,yeast gene YDR256C,0.6
same,The level of expressed mRNA in the presence of chemical substance/The level of expressed mRNA in the absence of chemical substance,yeast gene YDR453C,1.0
same,The level of expressed mRNA in the presence of chemical substance/The level of expressed mRNA in the absence of chemical substance,yeast gene YDR513W,1.6
same,The level of expressed mRNA in the presence of chemical substance/The level of expressed mRNA in the absence of chemical substance,yeast gene YDR538W,1.2
same,The level of expressed mRNA in the presence of chemical substance/The level of expressed mRNA in the absence of chemical substance,yeast gene YEL027W,0.8
same,The level of expressed mRNA in the presence of chemical substance/The level of expressed mRNA in the absence of chemical substance,yeast gene YEL065W,4.3
same,The level of expressed mRNA in the presence of chemical substance/The level of expressed mRNA in the absence of chemical substance,yeast gene YER185W,1.1
same,The level of expressed mRNA in the presence of chemical substance/The level of expressed mRNA in the absence of chemical substance,yeast gene YFL050C,0.8
same,The level of expressed mRNA in the presence of chemical substance/The level of expressed mRNA in the absence of chemical substance,yeast gene YGL013C,0.9
same,The level of expressed mRNA in the presence of chemical substance/The level of expressed mRNA in the absence of chemical substance,yeast gene YGL254W,1.3
same,The level of expressed mRNA in the presence of chemical substance/The level of expressed mRNA in the absence of chemical substance,yeast gene YGR088W,0.8
same,The level of expressed mRNA in the presence of chemical substance/The level of expressed mRNA in the absence of chemical substance,yeast gene YGR138C,0.7
same,The level of expressed mRNA in the presence of chemical substance/The level of expressed mRNA in the absence of chemical substance,yeast gene YGR197C,1.3
same,The level of expressed mRNA in the presence of chemical substance/The level of expressed mRNA in the absence of chemical substance,yeast gene YGR209C,1.7
same,The level of expressed mRNA in the presence of chemical substance/The level of expressed mRNA in the absence of chemical substance,yeast gene YGR224W,0.4
same,The level of expressed mRNA in the presence of chemical substance/The level of expressed mRNA in the absence of chemical substance,yeast gene YHL040C,4.0
same,The level of expressed mRNA in the presence of chemical substance/The level of expressed mRNA in the absence of chemical substance,yeast gene YHL047C,16.8
same,The level of expressed mRNA in the presence of chemical substance/The level of expressed mRNA in the absence of chemical substance,yeast gene YHR008C,0.7
same,The level of expressed mRNA in the presence of chemical substance/The level of expressed mRNA in the absence of chemical substance,yeast gene YHR048W,0.8
same,The level of expressed mRNA in the presence of chemical substance/The level of expressed mRNA in the absence of chemical substance,yeast gene YHR053C,1.2
same,The level of expressed mRNA in the presence of chemical substance/The level of expressed mRNA in the absence of chemical substance,yeast gene YHR055C,1.1
same,The level of expressed mRNA in the presence of chemical substance/The level of expressed mRNA in the absence of chemical substance,yeast gene YIR002C,1.3
same,The level of expressed mRNA in the presence of chemical substance/The level of expressed mRNA in the absence of chemical substance,yeast gene YIR038C,2.0
same,The level of expressed mRNA in the presence of chemical substance/The level of expressed mRNA in the absence of chemical substance,yeast gene YJL101C,1.0
same,The level of expressed mRNA in the presence of chemical substance/The level of expressed mRNA in the absence of chemical substance,yeast gene YJR104C,1.1
same,The level of expressed mRNA in the presence of chemical substance/The level of expressed mRNA in the absence of chemical substance,yeast gene YKL026C,2.5
same,The level of expressed mRNA in the presence of chemical substance/The level of expressed mRNA in the absence of chemical substance,yeast gene YKL064W,1.1
same,The level of expressed mRNA in the presence of chemical substance/The level of expressed mRNA in the absence of chemical substance,yeast gene YKR066C,0.5
same,The level of expressed mRNA in the presence of chemical substance/The level of expressed mRNA in the absence of chemical substance,yeast gene YKR105C,1.0
same,The level of expressed mRNA in the presence of chemical substance/The level of expressed mRNA in the absence of chemical substance,yeast gene YKR106W,0.9
same,The level of expressed mRNA in the presence of chemical substance/The level of expressed mRNA in the absence of chemical substance,yeast gene YLL028W,1.0
same,The level of expressed mRNA in the presence of chemical substance/The level of expressed mRNA in the absence of chemical substance,yeast gene YLL057C,1.6
same,The level of expressed mRNA in the presence of chemical substance/The level of expressed mRNA in the absence of chemical substance,yeast gene YLL060C,2.0
same,The level of expressed mRNA in the presence of chemical substance/The level of expressed mRNA in the absence of chemical substance,yeast gene YLR043C,2.6
same,The level of expressed mRNA in the presence of chemical substance/The level of expressed mRNA in the absence of chemical substance,yeast gene YLR046C,1.5
same,The level of expressed mRNA in the presence of chemical substance/The level of expressed mRNA in the absence of chemical substance,yeast gene YML028W,0.8
same,The level of expressed mRNA in the presence of chemical substance/The level of expressed mRNA in the absence of chemical substance,yeast gene YML116W,1.4
same,The level of expressed mRNA in the presence of chemical substance/The level of expressed mRNA in the absence of chemical substance,yeast gene YMR015C,0.4
same,The level of expressed mRNA in the presence of chemical substance/The level of expressed mRNA in the absence of chemical substance,yeast gene YMR038C,1.1
same,The level of expressed mRNA in the presence of chemical substance/The level of expressed mRNA in the absence of chemical substance,yeast gene YNL239W,2.1
same,The level of expressed mRNA in the presence of chemical substance/The level of expressed mRNA in the absence of chemical substance,yeast gene YNL241C,3.2
same,The level of expressed mRNA in the presence of chemical substance/The level of expressed mRNA in the absence of chemical substance,yeast gene YNL259C,3.8
same,The level of expressed mRNA in the presence of chemical substance/The level of expressed mRNA in the absence of chemical substance,yeast gene YOL158C,1.6
same,The level of expressed mRNA in the presence of chemical substance/The level of expressed mRNA in the absence of chemical substance,yeast gene YOR031W,1.3
same,The level of expressed mRNA in the presence of chemical substance/The level of expressed mRNA in the absence of chemical substance,yeast gene YOR153W,2.6
same,The level of expressed mRNA in the presence of chemical substance/The level of expressed mRNA in the absence of chemical substance,yeast gene YOR247W,0.5
same,The level of expressed mRNA in the presence of chemical substance/The level of expressed mRNA in the absence of chemical substance,yeast gene YOR251C,1.0
same,The level of expressed mRNA in the presence of chemical substance/The level of expressed mRNA in the absence of chemical substance,yeast gene YOR273C,0.4
same,The level of expressed mRNA in the presence of chemical substance/The level of expressed mRNA in the absence of chemical substance,yeast gene YPL163C,0.4
same,The level of expressed mRNA in the presence of chemical substance/The level of expressed mRNA in the absence of chemical substance,yeast gene YPR200C,1.3
